From ChEMBL document CHEMBL1201862, “PubChem BioAssay data set” (2004) come the findings set out here.

Test [1] deals with BJ. Briefly: cells. In kind it is functional, cell-based. The note with it: Homo sapiens.
Test [2] relates to BJ. Briefly: BJ-TERT-LT-ST fibroblast viability loss – cell-based, RAS-independent, luminescence, dose response (AID 1935).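 Further: BJ fibroblasts immortalized with TERT plus LT and ST oncogenes.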 Particulars: Homo sapiens. It is filed as functional.
A short description of test [3]: Luminescence Cell-Based Dose Retest to Confirm Inhibitors of Cancer Stem Cells. [Related pubchem assays (depositor defined):AID2717, AID2721]. It is filed as functional. The note with it: Homo sapiens.
The subject of test [4] is BJ. The test can be described thus: growth inhibition of engineered Ras-driven BJ cells – cell-based, alamar blue fluorescence, cherrypicked samples, dose response (AID 2631).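 Further: confirmatory dose-response assay in RAS-dependent BJ fibroblasts engineered with TERT, LT and ST, with cytotoxicity read by fluorescence.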 It is filed as functional. The note with it: Homo sapiens.
The nature of test [5]: DRD fibroblast viability loss – cell-based, non-viral oncogenic, luminescence, dose response (AID 1934). In kind it is functional. Particulars: Homo sapiens.
The target in test [6] is Melanocortin receptor 4 (Homo sapiens, UniProt P32245). In kind it is functional, cell-based.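 Further: Cell-based assay with luminescence read-out, confirmatory dose-response testing for agonist activity of biased ligands at MC4R; human U2OS cells with tagged receptor and beta-arrestin; potency of agonists that increase receptor coupling to beta-arrestin.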
Sequence of Melanocortin receptor 4 (P32245 whole entry): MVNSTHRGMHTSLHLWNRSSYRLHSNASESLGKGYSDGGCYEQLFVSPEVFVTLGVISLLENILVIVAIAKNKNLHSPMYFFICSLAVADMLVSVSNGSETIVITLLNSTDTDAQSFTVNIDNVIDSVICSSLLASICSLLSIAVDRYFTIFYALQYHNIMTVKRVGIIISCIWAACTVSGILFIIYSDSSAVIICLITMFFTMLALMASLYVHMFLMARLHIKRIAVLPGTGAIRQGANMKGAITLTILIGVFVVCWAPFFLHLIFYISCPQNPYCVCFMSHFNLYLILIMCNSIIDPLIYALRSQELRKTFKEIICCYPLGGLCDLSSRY
Test [7] has as its system BJ. The test can be described thus: BJ-TERT fibroblast viability loss – cell-based, RAS-independent, luminescence, dose response (AID 1933). It is filed as functional. Particulars: Homo sapiens.
Test [8] has as its target Protein Wnt-3a (Mus musculus, UniProt P27467). The test can be described thus: antagonism of Wnt3a pathway luciferase reporter – Wnt-LIGHT cells, luminescence, selectivity assay for Gli-SUFU antagonist project, dose response (AID 651570).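 Further: Wnt-LIGHT reporter cells stimulated with conditioned medium from Wnt3a-producing cells.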 The note with it: read-out: IC50_Mean. It is filed as functional.
The subject of test [9] is INS1. Briefly: INS-1E survival protection against cytokine death – cell-based, luminescence, retest, dose response (AID 449756).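 Further: cell death triggered by IL-1 beta plus TNF-alpha plus IFN-gamma mixture; protective hits raise ATP signal compared with cytokine alone wells.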 It is filed as functional. Particulars: Rattus norvegicus.
The nature of test [10]: loss of viability in HepG2 cells – cell-based, CellTiter-Glo, cherry-picked, cytotoxicity control for Shn3 inhibitor project, dose response (AID 624134). It is filed as functional.
In test [11] the target is FAD-linked sulfhydryl oxidase ALR (Homo sapiens, UniProt P55789). The test can be described thus: ALR-catalysed DTT oxidation blockers – biochemical, H2O2 detection, luminescence, cherry-pick, dose response (AID 493248).
Sequence of FAD-linked sulfhydryl oxidase ALR (P55789 whole entry): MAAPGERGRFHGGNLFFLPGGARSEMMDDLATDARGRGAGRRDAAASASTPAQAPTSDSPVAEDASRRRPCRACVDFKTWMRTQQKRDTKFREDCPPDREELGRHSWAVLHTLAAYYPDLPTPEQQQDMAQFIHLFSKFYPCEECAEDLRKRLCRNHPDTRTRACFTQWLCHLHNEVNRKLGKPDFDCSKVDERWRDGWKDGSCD
Test [12] concerns the target T1, Calpain-2 catalytic subunit (Sus scrofa, UniProt P43367).
T1 sequence (P43367 whole entry): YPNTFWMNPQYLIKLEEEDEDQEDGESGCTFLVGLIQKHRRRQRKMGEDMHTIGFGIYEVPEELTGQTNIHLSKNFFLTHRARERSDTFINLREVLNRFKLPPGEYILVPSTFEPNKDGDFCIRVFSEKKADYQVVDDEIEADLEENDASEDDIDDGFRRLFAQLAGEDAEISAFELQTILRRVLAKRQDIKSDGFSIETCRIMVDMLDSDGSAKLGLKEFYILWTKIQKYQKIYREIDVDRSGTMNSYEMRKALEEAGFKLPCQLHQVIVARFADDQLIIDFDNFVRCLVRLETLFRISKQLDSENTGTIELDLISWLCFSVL
The test can be described thus: m-calpain protease blockers, concentration series – biochemical, fluorogenic peptide substrate, dose response (AID 1420). In kind it is functional.

Test [13] in a line: non-specific 3'UTR reporter inhibition in Clone20-Shn3RL – cell-based, Renilla luciferase, cherry-picked, counter-screen for Shn3 inhibitor project, dose response (AID 624133). It is filed as functional.
The target of test [14] is Large T antigen (Simian virus 40, UniProt P03070). It is filed as functional, Betapolyomavirus macacae.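 Further: Confirmatory-stage PubChem screen for compounds that inhibit SV40 T antigen.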
Sequence of Large T antigen (P03070 whole entry): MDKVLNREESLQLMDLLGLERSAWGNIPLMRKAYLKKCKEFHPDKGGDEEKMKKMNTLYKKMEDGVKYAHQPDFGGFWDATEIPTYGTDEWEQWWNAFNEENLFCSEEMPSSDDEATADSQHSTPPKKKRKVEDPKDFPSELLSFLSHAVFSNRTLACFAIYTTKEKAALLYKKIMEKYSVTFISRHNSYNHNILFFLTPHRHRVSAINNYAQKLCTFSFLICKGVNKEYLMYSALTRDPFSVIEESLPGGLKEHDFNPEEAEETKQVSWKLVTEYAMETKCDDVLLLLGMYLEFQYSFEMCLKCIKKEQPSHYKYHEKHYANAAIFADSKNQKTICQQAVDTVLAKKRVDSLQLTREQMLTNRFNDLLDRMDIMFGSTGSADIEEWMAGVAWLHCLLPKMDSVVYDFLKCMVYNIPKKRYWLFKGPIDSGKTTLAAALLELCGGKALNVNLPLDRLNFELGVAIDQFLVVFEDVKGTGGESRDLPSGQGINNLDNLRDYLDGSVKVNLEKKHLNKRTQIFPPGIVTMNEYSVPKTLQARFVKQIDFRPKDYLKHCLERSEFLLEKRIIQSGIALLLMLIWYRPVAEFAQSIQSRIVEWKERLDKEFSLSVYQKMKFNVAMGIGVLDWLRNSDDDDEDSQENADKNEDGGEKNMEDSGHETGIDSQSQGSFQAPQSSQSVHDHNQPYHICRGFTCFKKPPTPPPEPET
Test [15] in a line: reduction of Shn3 3'UTR-driven luciferase in osteoblasts – cell-based, Clone20 osteoblasts, firefly luciferase, cherry-picked, dose response (AID 624132).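 Further: firefly luciferase luminescence from reporter carrying the Shn3 3'UTR in osteoblasts.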 It is filed as functional.
Test [16] deals with Paired box protein Pax-8 (Homo sapiens, UniProt Q06710). The test can be described thus: PAX8 transcriptional activity inhibition in RMG-I – RMG-I cells, luciferase, cherry-pick, dose response (AID 687027).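 Further: luciferase reporter driven by Pax8 target thyroperoxidase promoter measured by SteadyGlo luminescence.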 It is filed as functional, cell-based.
Sequence of Paired box protein Pax-8 (Q06710 whole entry): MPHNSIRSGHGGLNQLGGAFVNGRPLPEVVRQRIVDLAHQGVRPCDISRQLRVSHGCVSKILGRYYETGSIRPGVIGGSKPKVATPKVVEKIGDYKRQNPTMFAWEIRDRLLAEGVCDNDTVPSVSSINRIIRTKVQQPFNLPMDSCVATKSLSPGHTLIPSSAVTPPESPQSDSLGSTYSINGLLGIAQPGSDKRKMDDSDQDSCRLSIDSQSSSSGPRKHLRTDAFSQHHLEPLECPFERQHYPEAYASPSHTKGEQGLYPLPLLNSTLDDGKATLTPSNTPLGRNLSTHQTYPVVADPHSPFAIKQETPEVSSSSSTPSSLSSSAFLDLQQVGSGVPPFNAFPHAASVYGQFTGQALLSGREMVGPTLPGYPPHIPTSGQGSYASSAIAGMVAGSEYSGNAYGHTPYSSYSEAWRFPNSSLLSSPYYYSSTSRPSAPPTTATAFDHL
Test [17] addresses T2, Sentrin-specific protease 8 (Homo sapiens, UniProt Q96LD8).
T2 sequence (Q96LD8 whole entry): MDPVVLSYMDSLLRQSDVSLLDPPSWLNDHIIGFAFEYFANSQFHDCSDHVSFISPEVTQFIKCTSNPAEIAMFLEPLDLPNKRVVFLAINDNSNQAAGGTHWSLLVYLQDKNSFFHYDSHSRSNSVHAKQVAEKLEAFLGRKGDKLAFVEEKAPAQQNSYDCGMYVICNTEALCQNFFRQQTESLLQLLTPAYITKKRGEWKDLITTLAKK
In kind it is functional.

The target in test [18] is T3, Caspase-3 (Homo sapiens, UniProt P42574).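 Further: Dose-response selectivity test against caspase-3 for candidate inhibitors of sentrin-specific proteases (SENPs).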
T3 sequence (P42574 whole entry): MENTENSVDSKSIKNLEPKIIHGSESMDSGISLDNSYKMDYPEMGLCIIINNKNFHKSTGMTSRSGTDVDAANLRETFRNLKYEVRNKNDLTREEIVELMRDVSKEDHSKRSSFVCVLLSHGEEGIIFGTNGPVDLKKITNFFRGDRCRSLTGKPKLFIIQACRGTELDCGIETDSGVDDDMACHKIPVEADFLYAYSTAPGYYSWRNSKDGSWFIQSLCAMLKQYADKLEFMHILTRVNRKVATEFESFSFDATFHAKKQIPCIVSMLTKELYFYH
In kind it is functional.

The subject of test [19] is Streptococcus sp. 'group A'. The test can be described thus: Streptococcus pyogenes SK(-)GAS viability under kanamycin – luminescence, BacTiterGlo, confirmation, counter-screen for streptokinase expression inhibitor project, dose response (AID 1900). In kind it is functional, organism-based.
Test [20] deals with T4, Sentrin-specific protease 6 (Homo sapiens, UniProt Q9GZR1).
T4 sequence (Q9GZR1 whole entry): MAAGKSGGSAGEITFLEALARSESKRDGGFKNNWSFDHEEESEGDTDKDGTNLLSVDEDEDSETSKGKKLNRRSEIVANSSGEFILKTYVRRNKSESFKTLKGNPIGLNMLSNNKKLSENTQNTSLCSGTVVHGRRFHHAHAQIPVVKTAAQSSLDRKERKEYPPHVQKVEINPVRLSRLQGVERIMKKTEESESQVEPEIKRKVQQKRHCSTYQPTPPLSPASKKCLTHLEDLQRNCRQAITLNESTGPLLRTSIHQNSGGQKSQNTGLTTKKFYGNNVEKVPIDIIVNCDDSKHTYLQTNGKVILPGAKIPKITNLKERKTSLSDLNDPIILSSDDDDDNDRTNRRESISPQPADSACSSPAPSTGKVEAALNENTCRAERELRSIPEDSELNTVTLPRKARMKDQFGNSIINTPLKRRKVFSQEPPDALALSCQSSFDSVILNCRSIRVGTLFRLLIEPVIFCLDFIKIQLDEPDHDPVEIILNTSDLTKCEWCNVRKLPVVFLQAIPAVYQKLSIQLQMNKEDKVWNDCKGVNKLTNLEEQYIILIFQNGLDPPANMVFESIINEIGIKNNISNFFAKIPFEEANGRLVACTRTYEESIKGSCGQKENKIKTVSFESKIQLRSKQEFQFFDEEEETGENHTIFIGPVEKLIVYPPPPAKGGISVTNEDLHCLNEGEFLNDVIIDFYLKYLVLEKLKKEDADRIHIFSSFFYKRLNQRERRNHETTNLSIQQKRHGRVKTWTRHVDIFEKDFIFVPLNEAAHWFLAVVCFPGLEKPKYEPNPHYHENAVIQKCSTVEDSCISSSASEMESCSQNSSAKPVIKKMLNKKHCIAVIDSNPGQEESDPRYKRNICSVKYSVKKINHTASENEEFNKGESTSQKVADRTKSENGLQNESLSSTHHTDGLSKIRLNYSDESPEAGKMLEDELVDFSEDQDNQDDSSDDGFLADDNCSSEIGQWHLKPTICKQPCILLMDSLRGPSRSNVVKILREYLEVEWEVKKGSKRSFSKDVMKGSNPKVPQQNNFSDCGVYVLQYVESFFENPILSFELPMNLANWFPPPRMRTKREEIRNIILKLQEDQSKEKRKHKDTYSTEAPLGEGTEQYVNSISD
In kind it is functional.

The test system of test [21] is Streptococcus. The test can be described thus: GAS UMAA2166 growth inhibition – luminescence, BacTiterGlo, counter-screen for streptokinase expression inhibitor project, dose response (AID 1915).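 Further: potency for reduction of bacterial viability or growth.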 In kind it is functional, organism-based.
In test [22] the target is T5, Sentrin-specific protease 7 (Homo sapiens, UniProt Q9BQF6).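 Further: Luminescence-based dose-response confirmation of ultra-high-throughput screening hits, measuring inhibition of SENP7.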
T5 sequence (Q9BQF6 whole entry): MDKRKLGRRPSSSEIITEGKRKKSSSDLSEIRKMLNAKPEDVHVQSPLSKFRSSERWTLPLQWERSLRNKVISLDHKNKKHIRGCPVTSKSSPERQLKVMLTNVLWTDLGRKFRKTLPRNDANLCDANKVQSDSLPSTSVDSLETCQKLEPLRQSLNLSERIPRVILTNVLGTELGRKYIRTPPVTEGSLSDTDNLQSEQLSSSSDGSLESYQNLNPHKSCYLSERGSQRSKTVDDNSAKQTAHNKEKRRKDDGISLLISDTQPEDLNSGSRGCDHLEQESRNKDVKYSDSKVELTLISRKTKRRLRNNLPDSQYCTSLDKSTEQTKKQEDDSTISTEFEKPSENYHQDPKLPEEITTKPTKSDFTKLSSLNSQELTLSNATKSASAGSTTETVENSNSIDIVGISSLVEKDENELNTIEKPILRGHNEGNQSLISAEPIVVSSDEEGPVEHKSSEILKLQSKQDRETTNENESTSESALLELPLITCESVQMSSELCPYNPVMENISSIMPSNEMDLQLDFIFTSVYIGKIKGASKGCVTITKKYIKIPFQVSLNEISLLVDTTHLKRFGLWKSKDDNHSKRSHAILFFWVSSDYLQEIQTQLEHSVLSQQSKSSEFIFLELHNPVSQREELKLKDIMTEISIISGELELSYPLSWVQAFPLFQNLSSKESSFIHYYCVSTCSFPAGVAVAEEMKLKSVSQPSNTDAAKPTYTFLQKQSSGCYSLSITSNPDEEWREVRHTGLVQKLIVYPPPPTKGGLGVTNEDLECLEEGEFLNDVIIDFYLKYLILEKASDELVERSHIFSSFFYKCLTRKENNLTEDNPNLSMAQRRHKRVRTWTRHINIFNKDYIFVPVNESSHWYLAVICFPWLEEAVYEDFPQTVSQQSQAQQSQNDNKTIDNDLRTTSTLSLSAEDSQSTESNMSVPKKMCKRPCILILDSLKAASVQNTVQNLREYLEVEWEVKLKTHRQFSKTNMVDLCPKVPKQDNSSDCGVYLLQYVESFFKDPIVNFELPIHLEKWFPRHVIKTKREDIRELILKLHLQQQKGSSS
In kind it is functional.

The source made the active and inactive calls. Where only a bound is given, the exact number is not on record here.

Sequence of Protein Wnt-3a (P27467 whole entry): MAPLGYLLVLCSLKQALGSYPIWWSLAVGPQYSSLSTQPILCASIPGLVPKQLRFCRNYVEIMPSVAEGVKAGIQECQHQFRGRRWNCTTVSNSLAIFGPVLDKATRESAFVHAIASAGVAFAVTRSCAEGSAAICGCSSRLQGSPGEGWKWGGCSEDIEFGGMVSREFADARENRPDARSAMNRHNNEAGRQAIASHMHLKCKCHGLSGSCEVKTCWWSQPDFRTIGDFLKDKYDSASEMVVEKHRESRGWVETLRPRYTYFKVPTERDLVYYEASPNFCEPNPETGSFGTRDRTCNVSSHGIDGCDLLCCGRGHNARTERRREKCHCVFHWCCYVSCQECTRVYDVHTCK

Consider `CCc1ccc(CCC(=O)Nc2ncc(Cc3ccccc3Cl)s2)o1`, for which the EC50 in test [1] was 14 µM (active); in test [2], 2.83 µM (active); in test [4], 1.83 µM (active); in test [5], 3.72 µM (active); in test [6] it was > 89.2 µM (inactive); in test [7], 2.76 µM (active). For the same compound, in [3], the AC50 was 0.184 µM (active).

`CCCCCn1c(=N)n(CC(O)COc2ccccc2OC)c2ccccc21` (centres undefined): the IC50 in test [8] is 8.95 µM (active).

For the compound `CCOc1ccc(OCc2ccc(C(=O)NN=Cc3ccc[nH]3)cc2)cc1`, the AC50 in test [9] is 0.372 µM (active). Also, in [8], the IC50 was 5.48 µM (active).

Turning to `CC(C)(C)NC(=O)NC(=O)CN1CCN(c2ccc(O)cc2)CC1`, the AC50 in test [10] was 67.2 µM (active); in test [11], 4.04 µM (active); in test [13], 5.88 µM (active); in test [15] it was 1.9 µM (active). The IC50 was 19.1 µM (not active) in [12] and 21.2 µM (active) in [14].

Regarding `Clc1ccc(-c2c[n+](-c3ccc(Cl)cc3)c3n2CCCCC3)cc1`, the IC50 in test [8] is 26.4 µM (inactive).

For the compound `CCC(C)C1NC(=O)C(NC(=O)C(CC(C)C)N(C)C(=O)C2CCCN2C(=O)C(C)O)C(C)OC(=O)C(Cc2ccc(OC)cc2)N(C)C(=O)C2CCCN2C(=O)C(CC(C)C)NC(=O)[C@H](C)C(=O)[C@H](C(C)C)OC(=O)CC1O` (some centres undefined), the AC50 in [10] is > 70 µM (inactive); in test [13], < 0.26 µM (active); in [16] it was < 0.26 µM (active); in test [15], < 0.26 µM (active).

For the compound `c1ccc(CNc2c(-c3cccc(SC4CCCCC4)c3)nc3ccccn23)cc1`, the AC50 in test [10] was > 70 µM (inactive); in test [3] it was 5.29 µM (active); in test [13], 6.09 µM (active); in test [9], 5.06 µM (active); in [15], 3.46 µM (active).

For the compound `COc1cc(O)c(CC=C(C)C)c(O)c1C(=O)CCc1ccc(O)cc1` [DIHYDROXANTHOHUMOL], the IC50 in test [17] was 13.3 µM (active); in [12] it was 5 µM (not active); in test [18] it was > 100 µM (inactive); in [20] it was 10 µM (active); in [22], 7.82 µM (active). Further, the results for the EC50 in test [19], in test [6] and in test [21] were 2.79 µM (active), > 89.2 µM (inactive) and 3.05 µM (active), respectively.
